Test results taken from ChEMBL document CHEMBL6134779, “Design of Proteolytic-Resistant Antifungal Peptides by Utilizing Minimum d-Amino Acid Ratios” (J Med Chem, 2024).
Values after ≈ are worked out from the molar mass of the structure shown. Active and inactive are the calls of the source. The rule behind the calls is not given here.

What was measured:
Candida albicans [1] = test: Antifungal activity against Candida albicans 14936 assessed as inhibition of fungal growth incubated for 48 hrs; format: functional
Candida parapsilosis = test: Antifungal activity against Candida parapsilosis CGMCC 2.3989 assessed as inhibition of fungal growth incubated for 48 hrs; format: functional; conditions: Lodderomyces parapsilosis
[2] = Cytotoxicity against porcine IPEC-J2 cells assessed as reduction in cell viability at 128 uM incubated for 4 hrs by MTT assay; format: toxicity, cell-based, Sus scrofa; conditions: pig, ipec-j2, 4 h
HEK293 = test: Cytotoxicity against HEK293 cells assessed as cell death at 64 uM measured after 8 hrs by calcein-AM and propidium iodide Live/Dead dye staining assay; format: toxicity, cell-based; conditions: human, hek293, 8 h
Candida albicans [3] = test: Antifungal activity against Candida albicans CGMCC 2.2086 assessed as inhibition of fungal growth incubated for 48 hrs in presence of MgCl2; format: functional
Candida albicans [4] = test: Antifungal activity against Candida albicans CGMCC 2.2086 assessed as inhibition of fungal growth incubated for 48 hrs in presence of CaCl2; format: functional
[5] = Stability of the compound in KCl assessed as change in secondary structure by CD spectra analysis; format: physicochemical
[6] = Stability of the compound in FeCl3 assessed as change in secondary structure by CD spectra analysis; format: physicochemical
Candida albicans [7] = test: Antifungal activity against Candida albicans CGMCC 2.2086 assessed as inhibition of fungal growth incubated for 2 to 4 hrs in presence of 100% serum; format: functional, organism-based; conditions: time 2-4 hrs
Candida albicans [8] = test: Antifungal activity against Candida albicans CGMCC 2.2086 assessed as inhibition of fungal growth incubated for 2 hrs in presence of chymotrypsin; format: functional, organism-based
Candida albicans [9] = test: Antifungal activity against Candida albicans CGMCC 2.2086 assessed as inhibition of fungal growth incubated for 2 hrs in presence of protease K; format: functional, organism-based
Candida albicans [10] = test: Antibiofilm activity against Candida albicans CGMCC 2.2086 assessed as eradication of mature biofilm at 4X MIC measured after 3 hrs by SYTO 9/propidium iodide staining based fluorescence microscopy; format: functional, organism-based
Candida albicans [11] = test: Induction of Candida albicans CGMCC 2.2086 cell wall permeabilization by NPN probe based assay; format: functional, organism-based; conditions: dose 1-128 µM
Cell membrane = test: Induction of cytoplasmic membrane depolarization in Candida albicans CGMCC 2.2086 at 0.5 to 2X MIC measured up to 3600 secs by DISC3-5 dye based fluorescence assay; format: subcellular; conditions: time <= 3600.0 sec
Candida albicans [12] = test: Induction of morphological changes in Candida albicans CGMCC 2.2086 assessed as appearance of cell wrinkles at 1X MIC measured after 60 mins by SEM analysis; format: functional, organism-based
Candida albicans [13] = test: Fungicidal activity against Candida albicans CGMCC 2.2086 measured up to 120 mins by time-kill assay; format: functional, organism-based
Candida albicans [14] = test: Antifungal activity against Candida albicans CGMCC 2.2086 infected in C57BL/6 mouse keratitis model assessed as reduction in clinical scores at 5 mg/ml administered as 10 uL eye drop every 5 mins for first 1 hr and every 30 mins for next 7 hrs; format: functional, organism-based; conditions: route ou, time 8.0 hrs
Candida albicans [15] = test: Antifungal activity against Candida albicans CGMCC 2.2086 infected in C57BL/6 mouse keratitis model assessed as increase in ocular transparency at 5 mg/ml administered as 10 uL eye drop every 5 mins for first 1 hr and every 30 mins for next 7 hrs; format: functional, organism-based; conditions: route ou, time 8.0 hrs

With `CC[C@H](C)[C@H](N)C(=O)N[C@H](C(=O)N[C@H](CCCNC(=N)N)C(=O)N[C@@H](CCCNC(=N)N)C(=O)N[C@@H](Cc1c[nH]cn1)C(=O)N[C@H](C(=O)N[C@H](C(=O)N[C@H](C(=O)N[C@H](C(=O)N[C@H](CCCNC(=N)N)C(=O)N[C@@H](CCCNC(=N)N)C(=O)N[C@@H](Cc1c[nH]cn1)C(=O)N[C@H](C(=O)N[C@H](C(=O)N[C@H](C(=O)N[C@H](C(=O)N[C@H](CCCNC(=N)N)C(=O)N[C@@H](CCCNC(=N)N)C(=O)N[C@@H](Cc1c[nH]cn1)C(=O)N[C@H](C(=O)N[C@H](C(N)=O)[C@@H](C)CC)[C@@H](C)CC)[C@@H](C)CC)[C@@H](C)CC)[C@@H](C)CC)[C@@H](C)CC)[C@@H](C)CC)[C@@H](C)CC)[C@@H](C)CC)[C@@H](C)CC)[C@@H](C)CC` as the compound, how does the MIC95 (Candida albicans [1]) read?
Its MIC95 is 4 µM (≈ 10.9 µg/mL).

What about the MIC95 (Candida parapsilosis) of the same compound?
Its MIC95 is 4 µM (≈ 10.9 µg/mL).

And the Activity [2]?
Its Activity is “Toxic”.

And the Activity (HEK293)?
Its Activity is “Toxic”.

And the MIC95 (Candida albicans [3])?
Its MIC95 is 4 µM.

And the MIC95 (Candida albicans [4])?
The MIC95 was 8 µM.

And the Stability [5]?
Its Stability is “Stable”.

And the Stability [6]?
The Stability was “Stable”.

What about the “growth inhibition (GI)” value (Candida albicans [7]) of the same compound?
Its value is “Active; No Alterations In The Antimicrobial Activity Was Observed In Presence Of Serum”.

And the Activity (Candida albicans [8])?
The Activity was “Active”.

What about the Activity (Candida albicans [9]) of the same compound?
The Activity was “Active”.

And the Activity (Candida albicans [10])?
Its Activity is “Active”.

And the Activity (Candida albicans [11])?
The Activity was “Dose-dependent-effect”.

And the Activity (Cell membrane)?
Its Activity is “Active”.

What about the Activity (Candida albicans [12]) of the same compound?
The Activity was “Active”.

What about the Activity (Candida albicans [13]) of the same compound?
The Activity was “Dose-dependent-effect”.

What about the Activity (Candida albicans [14]) of the same compound?
Its Activity is “Active”.

And the Activity (Candida albicans [15])?
Its Activity is “Active”.
